Laboratory results: patent EP2949324A1, “Prevention and/or treatment of ischemia/reperfusion injury” (Consorci Institut Catala de Ciencies Cardiovasculars, priority 2014, dated 2015)

Key:
[1] = cited from earlier work; for infarct size: given pre-ischemia
[2] = tested on: canine hepatic ischemia/reperfusion model; conditions: given prior to reperfusion; cited from earlier work
[3] = biological target: Na^+/H^+ exchange system (Homo sapiens, UniProt P19634); conditions: recent clinical trial; cited from earlier work
Na^+/H^+ exchange system, sequence (P19634 whole entry): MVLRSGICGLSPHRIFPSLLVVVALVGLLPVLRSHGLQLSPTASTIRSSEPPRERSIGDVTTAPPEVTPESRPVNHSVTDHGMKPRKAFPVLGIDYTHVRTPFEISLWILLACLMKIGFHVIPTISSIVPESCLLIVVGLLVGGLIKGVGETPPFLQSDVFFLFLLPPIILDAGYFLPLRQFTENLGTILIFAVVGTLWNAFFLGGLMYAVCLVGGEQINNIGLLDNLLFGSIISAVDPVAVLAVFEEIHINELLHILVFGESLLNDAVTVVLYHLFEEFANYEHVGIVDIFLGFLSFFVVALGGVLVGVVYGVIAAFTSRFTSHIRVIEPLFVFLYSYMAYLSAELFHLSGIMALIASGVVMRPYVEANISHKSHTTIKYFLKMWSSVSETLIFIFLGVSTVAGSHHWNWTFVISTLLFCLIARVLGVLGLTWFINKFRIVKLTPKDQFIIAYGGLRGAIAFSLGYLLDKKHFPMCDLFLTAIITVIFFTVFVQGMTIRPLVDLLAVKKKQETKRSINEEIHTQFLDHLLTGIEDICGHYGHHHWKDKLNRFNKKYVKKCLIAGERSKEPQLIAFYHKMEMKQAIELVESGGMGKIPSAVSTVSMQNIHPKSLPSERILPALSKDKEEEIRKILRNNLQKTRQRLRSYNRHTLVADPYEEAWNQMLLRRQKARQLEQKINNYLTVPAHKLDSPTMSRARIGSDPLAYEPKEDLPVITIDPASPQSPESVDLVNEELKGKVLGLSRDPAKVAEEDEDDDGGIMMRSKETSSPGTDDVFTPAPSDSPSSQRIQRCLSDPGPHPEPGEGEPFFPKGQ

[4] = tested on: LDL; assay: Resistance of LDL against copper induced in vitro oxidation and TBARS; format: in vivo, swine; conditions: 3 week oral treatment; p<0.05
Method: (§1) Blood samples were collected at 2.5 h post-reperfusion and 3 weeks post-MI to evaluate lipoprotein resistance to oxidation. The inventors firstly assessed HDL-antioxidant activity by a method based on the ability of HDL to reverse oxidation of LDL. Results were expressed as the percentage of total oxidized LDL considering that control oxLDL is 100%. In addition, resistance of LDL against copper induced in vitro oxidation was also determined in EDTA-blood samples as previously described. The inventors also determined the lipid peroxide content of oxidized-LDL by assessing thiobarbituric-acid-reactive substances (TBARS).

[5] = tested on: PKCε; assay: PKCε expression/activation in the forming scar (Western blot); format: in vivo, swine; conditions: scar tissue, compared to placebo-control animals
Method: (§2) Western Blot analysis: Protein levels of: 1) apoptosis markers (truncated-caspase-3); 2) cardioprotective kinases [PKC-ε and PKC-ε phosphorylated at Ser^729 (Santa Cruz) and Akt/PKB (Santa Cruz) and Akt phosphorylated at Ser^473 (Cell signaling)]; 3) total eNOS and eNOS phosphorilated at Ser^1177 (Cell Signaling); and 4) fibrosis [TGFP type II receptor (TPRII; Abcam) and phosphorylated-Smad2/3 (Ser^423/425; Santa Cruz)] were assessed.

[6] = tested on: TβRII/Smad2/3 signaling pathway; assay: Reparative fibrosis of the forming scar (TβRII/Smad2/3, myofibroblasts, collagen); format: in vivo, swine
Method: (§3) Transcriptomic analysis: It was analyzed by real-time PCR (Applied Biosystems) mRNA levels for: 1) apoptosis-related markers [extrinsic-(Fas Receptor/CD95 and caspase-8), intrinsic-(Bax, Bcl2, and P53) pathways and caspase-3]; 2) intracellular calcium handling receptors [sarcoendoplasmic reticulum Ca^2+ATPase 2 (SERCA2) and the ryanodine receptor (RyR2)]; and 3) fibrous tissue formation (collagen, Smad2 and Smad3). The threshold cycle values were determined and normalized to the housekeeping gene 18S rRNA.
as §2
(§4) To that end, serially cut 5 µm sections from OCT-embedded samples were stained for lipids (oil red-O, ORO) and interstitial collagen (Sirius Red). Images were captured with a Nikon eclipse 80i microscope and digitalized by a Retiga-1300i. Staining was calculated by a single blinded observer from an average of 5-fields/sample as content (%)=[positive stained area/(total tissue area- vascular luminal areas)]x100 using ImageJ®.
In addition, myofibroblasts detection in the scar tissue was performed by double staining with mouse monoclonal vimentin (Dako) and rabbit polyclonal alpha-SMA 1:50 (Abeam). Alexa fluor 488 donkey anti-mouse and alexa fluor 546 goat anti-rabbit were used as secondary antibodies, respectively and Hoechst for nuclear staining. Images were captured by confocal microscopy (20x).

[7] = tested on: pig model of closed-chest coronary balloon occlusion/reperfusion; assay: Myocardial lipotoxicity: oil red-O staining and lipid characterization (TLC) of scar and NIM; format: in vivo, swine; conditions: 3 weeks post-MI
Method: as §4

[8] = tested on: RhoA; assay: RhoA in total and cytosolic-membrane fractions of cardiac tissue (immunoblotting); format: in vivo, swine; conditions: for total amount of RhoA: myocardium, […] post-reperfusion and 3 weeks post-MI
Method: RhoA (Santa Cruz) was determined in total and cytosolic-membrane fractions of jeopardized cardiac tissue of all animals as previously described by Vilahur G 2009 (ad supra).

[9] = tested on: Akt/eNOS signaling pathway; assay: Akt/eNOS signaling (Western blot) in myocardium and coronary arteries; format: in vivo, swine
Method: as §2
In addition, 3 weeks post-MI, the coronary arteries of all animals were isolated, cleaned of surrounding tissue and snap frozen for further analysis of coronary phosphorylated-eNOS protein expression.

[10] = tested on: pig model of closed-chest coronary balloon occlusion/reperfusion; assay: Transthoracic echocardiography (LVEF, SF); format: in vivo, swine
Method: Transthoracic echocardiography assessment was performed in all animals before inducing ischemia (baseline), after 75 min of ischemia (prior β-OH-S infusion), 2.5 h post-reperfusion and 3 weeks post-MI using an echocardiographyc system Phillips iE33 equipped with a S5-1 Sector Array transducer. Left ventricle ejection fraction (LVEF) and shortening fraction (SF) were measured in the short-axis M-mode right parasternal projection in a plane below the mitral valves and perpendicular to the LV (left ventricle).

[11] = tested on: canine cardiac ischemia model; conditions: infused during reperfusion; cited from earlier work
[12] = tested on: endothelin receptors; conditions: cited from earlier work; for cardiac function and myocardial relaxation: at 1 h; for difference compared to placebo-treated animals: at 24 h
[13] = tested on: apoptosis-related markers; assay: Apoptosis-related markers in ischemic myocardium (real-time PCR, Western blot, TUNEL); format: in vivo, swine
Method: (§5) Tissue samples obtained from the IM (2.5 h post-reperfusion)/scar (3 weeks post-MI) and NIM of all animals were pulverized and homogenized in Tripure® or lysis buffer for RNA and protein isolation, respectively.
as §3, §2
Isolated mitochondrial extracts were incubated against Bcl-2 phosphorylated at Ser^87.

[14] = tested on: RyR2; assay: Real-time PCR of calcium handling receptor mRNA; format: in vivo, swine
Method: as §5, §3

[15] = tested on: SERCA2; assay: Real-time PCR of calcium handling receptor mRNA; format: in vivo, swine
Method: as §5, §3

[16] = tested on: pig model of closed-chest coronary balloon occlusion/reperfusion; assay: Morphometric determination of infarct size (Evan's Blue / TTC); format: in vivo, swine; conditions: single loading dose 0.3 mg/kg i.v. prior reperfusion; p<0.05
Method: This hyperlipidemic diet contains 24.82% proteins, 64.20% carbohydrates, 10.98% fats and 16,834.7 kJ. […] After this 10 day diet period animals underwent a closed-chest 90 min mid-left anterior descending (LAD) coronary balloon occlusion. […] At minute 90, the balloon was deflated to achieve coronary artery reperfusion. […] The incidence of reperfusion-related arrhythmias during the first 2.5 h upon balloon deflation was documented in all animals. Animals had continuous ECG and hemodynamic monitoring throughout all procedures. 2.5 h post-reperfusion Evan's Blue dye was injected in anesthetized animals through the left atrium to outline the area at risk (AAR) after which the hearts of the animals were arrested with potassium chloride and rapidly excised. Hearts were sectioned into 6 transverse slices parallel to the atrioventricular ring. Consecutive slices were alternatively collected for infarct size analysis (TTC; triphenyltetrazolium chloride staining) and molecular studies of the ischemic myocardium (IM) and non-ischemic myocardium (NIM).

[17] = tested on: pig model of closed-chest coronary balloon occlusion/reperfusion; assay: Neutrophil detection in ischemic myocardium (anti-neutrophil elastase staining); format: in vivo, swine; conditions: […] post-reperfusion, p<0.05
Method: (§6) Paraffin-embedded LAD and ischemic myocardial tissue of animals sacrificed 2.5 h post-reperfusion were cut into 5-µm-thick for 8-hydroxyguanosine staining (Abcam ab48508), a measurement indicative of oxidative stress-induced DNA-damage. In addition, optimal cutting temperature (OCT)-embedded ischemic myocardial tissue of animals sacrificed 2.5 h post-reperfusion was stained for neutrophils detection (anti-neutrophil elastase; Abcam). Staining was calculated by a single blinded observer from an average of 5-fields/animal as % of stained area. Images were captured by Nikon Eclipse 80i microscope and digitized by Retiga 1300i Fast camera.

[18] = tested on: oxLDL; assay: HDL-antioxidant activity (ability of HDL to reverse oxidation of LDL); format: in vivo, swine; conditions: HDL isolated […] post-reperfusion; p<0.05
Method: as §1

[19] = tested on: mitochondria isolated from the ischemic myocardium; assay: Mitochondrial membrane potential by flow cytometry (JC-1); format: in vivo, swine; conditions: […] of reperfusion, p<0.05
Method: Mitochondria were isolated from the ischemic myocardium of pigs subjected to 2.5 h of reperfusion as previously reported (Boehm et al. 2001 Am J Physiol Heart Circ Physiol 280: H977-983). Mitochondrial membrane potential (Δψm) was measured by flow cytometry using the ratiometric dye 5,5',6,6'-tetrachloro-1,1',3,3'-tetraethylbenzimidazol carbocyanine iodide (JC-1; Molecular Probes). Values were expressed as red fluorescence activity. Isolated mitochondria treated with valinomycin (Sigma), which decreases Δψm, were used as control.

[20] = tested on: pig model of closed-chest coronary balloon occlusion/reperfusion; assay: Reperfusion-related arrhythmias and hemodynamic monitoring; format: in vivo, swine
Method: This hyperlipidemic diet contains 24.82% proteins, 64.20% carbohydrates, 10.98% fats and 16,834.7 kJ. […] After this 10 day diet period animals underwent a closed-chest 90 min mid-left anterior descending (LAD) coronary balloon occlusion. […] At minute 90, the balloon was deflated to achieve coronary artery reperfusion. […] The incidence of reperfusion-related arrhythmias during the first 2.5 h upon balloon deflation was documented in all animals. Animals had continuous ECG and hemodynamic monitoring throughout all procedures.

[21] = tested on: pig model of closed-chest coronary balloon occlusion/reperfusion; assay: Vascular/cardiac DNA-oxidative damage (8-hydroxyguanosine staining); format: in vivo, swine; conditions: […] post-reperfusion
Method: as §6

[22] = ischemic myocardium, […] post-reperfusion

CS(=O)(=O)O.Cc1cccc2c1cc(C(=O)N=C(N)N)n2C [SM-20550]
effect on infarct size ([1]; given post-ischemia): beneficial | infarct size [1]: reduced infarct size in a dose-dependent manner

Nc1ncnc2c1ncn2[C@@H]1O[C@H](CO)[C@@H](O)[C@H]1O [adenosine, Adenosine]
aspartate aminotransferase (AST) and alanine transaminase (ALT) [2]: attenuated the rise | hepatic glutathione stores [2]: restored | neutrophil accumulation and superoxide radical production [2]: inhibition

CC(C)c1ccc(C(=O)NC(=N)N)cc1S(C)(=O)=O [Cariporide]
reperfusion injury (improved left ventricular (LV) dysfunction) [3]: attenuation of reperfusion injury

CCC(C)(C)C(=O)O[C@H]1C[C@@H](C)C=C2C=C[C@H](C)[C@H](CC[C@@H]3C[C@@H](O)CC(=O)O3)[C@H]21 [Simvastatin, (1S,3R,7S,8S,8aR)-8-{2-[(2R,4R)-4-hydroxy-6-oxotetrahydro-2H-pyran-2-yl]ethyl}-3,7-dimethyl-1,2,3,7,8,8a hexahydronaphthalen-1-yl 2,2-dimethylbutanoate]
decrease in TBARS levels as compared to the experimental day [4]: 32% | prolongation of the lag time as compared to control/placebo animals [4]: 4 times | PKCε expression and activation [5]: enhanced both the expression and activation | Smad3 mRNA levels ([6]; different cardiac regions, 3 weeks post-MI): no changes | collagen fibrils deposition ([6]; healing scar, compared to control animals and NIM): higher | α-SMA/vimentin positive myofibroblasts ([6]; healing scar, data not shown): higher detection | Smad2/3 (downstream effector of TβRII) ([6]; scar area, 3 weeks post-MI): activation | TβRII protein expression ([6]; scar area, 3 weeks post-MI): marked and significant increase | Smad2 gene expression ([6]; scar tissue, 3 weeks post-MI): significantly upregulated | free-cholesterol content ([7]; different cardiac zones): No differences | less cholesteryl-ester accumulation as compared to placebo-controls ([7]; forming scar): 50% | total amount of RhoA [8]: unchanged | decrease of RhoA membrane translocation ([8]; scar, after the 3-week oral treatment, p<0.001 vs control): persisted | P-eNOS ([9]; coronary arteries at 3-weeks post-MI): enhanced | P-Akt/P-eNOS pathway activation ([9]; evolving scar up to 3 weeks post-AMI): persisted | LVEF and SF improvement ([10]; up to 3 weeks post-MI, oral simvastatin): persisted

CCNC(=O)[C@H]1O[C@@H](n2cnc3c(N)nc(NCCc4ccc(CCC(=O)O)cc4)nc32)[C@H](O)[C@@H]1O [CGS-21680]
Bax [11]: downregulated | Bcl-2 levels [11]: upregulated | neutrophil accumulation in the perinecrotic myocardium [11]: reduced

BQ-788
cardiac function and myocardial relaxation [12]: significantly better | difference compared to placebo-treated animals [12]: no longer evident

O=C(NCCO[N+](=O)[O-])c1cccnc1 [nicorandil]
infarct size [1]: reduced infarct size in a dose-dependent manner

CCC(C)(C)C(=O)OC1CC(C)C=C2C=CC(C)C(CCC(O)CC(O)CC(=O)O)C21 (stereo not drawn) [β-OH-S, β-hydroxy acid derivative of simvastatin]
mitochondrial Bcl-2 activation [13, 22]: diminished | truncated caspase-3 expression [13, 22]: reduced | apoptotic cell counts (TUNEL staining) ([13]; ischemic myocardium, compared to vehicle/control, data not shown): low apoptotic cell counts | upregulation of genes of death receptor- and mitochondrial-related apoptotic pathways ([13]; jeopardized myocardium, […] post-reperfusion): prevented the upregulation | RyR2 mRNA ([14]; NIM): 0.2±0.07 RyR2/18S rRNA | RyR2 mRNA ([14]; ischemic myocardium): 0.14±0.03 RyR2/18S rRNA | SERCA2 mRNA ([15]; NIM): 1.5±0.3 SERCA/18S rRNA | SERCA2 mRNA ([15]; ischemic myocardium): 1.9±0.5 SERCA/18S rRNA | salvage of the LV-at-risk as compared to reperfusion alone [16]: 40% | attenuation of neutrophils infiltration as compared to vehicle/control [17]: ~70% | higher HDL antioxidant activity against LDL oxidation relative to controls [18]: 25% | Δψm relative to vehicle/control [19]: 2 times | RhoA membrane translocation (activation), membrane-to-cytosol ratio ([8]; intravenous infusion, ischemic myocardium, […] post-reperfusion, p<0.001 vs control): markedly decreased | total amount of RhoA [8]: unchanged | P-Akt/P-eNOS pathway ([9]; ischemic myocardium, acute administration): activating | incidence of reperfusion-related ventricular arrhythmias ([20]; first […] upon balloon deflation, 3 out of 12): 25 % animals | hemodynamic parameters (heart rate and mean blood pressure) ([20]; throughout the study): not affected | LVEF improvement ([10]; […] after reperfusion): 9.4% | SF improvement ([10]; […] after reperfusion): 6.0% | reperfusion-related oxidative DNA damage ([21]; coronary artery): absence of DNA oxidative damage | reperfusion-related oxidative DNA damage ([21]; ischemic myocardial tissue): absence of DNA oxidative damage

BQ-123
cardiac function and myocardial relaxation [12]: significantly better | difference compared to placebo-treated animals [12]: no longer evident
